Test system: OVCAR-5 complex spheroids, viability
Assay: Anticancer human tumor OVCAR-5 cell line growth inhibition;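 note: spheroids exposed to agents for seven days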;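 for viability, T/C: 100% = DMSO vehicle control wells viability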
Details: for viability, T/C: stronger effect = lower value
In short: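 Complex spheroids of tumor cells with HUVEC and human MSCs, exposed to iadademstat combined with other agents. Each agent tested in half-log steps from near clinical Cmax (else 10 microM top), DMSO ≤0.25%.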

[1] = curve of first compound, second compound 0.1 µM
[2] = curve of first compound, second compound 0.316 µM
[3] = curve of first compound, second compound 1 µM
[4] = curve of first compound, second compound 3.16 µM
[5] = curve of first compound, second compound 10 µM
[6] = second compound 0.1 µM, first compound 0.0316 µM
[7] = second compound 0.1 µM, first compound 0.1 µM
[8] = second compound 0.1 µM, first compound 0.316 µM
[9] = second compound 0.1 µM, first compound 1 µM
[10] = second compound 0.1 µM, first compound 3.16 µM
[11] = second compound 0.1 µM, first compound 10 µM
[12] = second compound 0.316 µM, first compound 0.0316 µM
[13] = second compound 0.316 µM, first compound 0.1 µM
[14] = second compound 0.316 µM, first compound 0.316 µM
[15] = second compound 0.316 µM, first compound 1 µM
[16] = second compound 0.316 µM, first compound 3.16 µM
[17] = second compound 0.316 µM, first compound 10 µM
[18] = second compound 1 µM, first compound 0.0316 µM
[19] = second compound 1 µM, first compound 0.1 µM
[20] = second compound 1 µM, first compound 0.316 µM
[21] = second compound 1 µM, first compound 1 µM
[22] = second compound 1 µM, first compound 3.16 µM
[23] = second compound 1 µM, first compound 10 µM
[24] = second compound 3.16 µM, first compound 0.0316 µM
[25] = second compound 3.16 µM, first compound 0.1 µM
[26] = second compound 3.16 µM, first compound 0.316 µM
[27] = second compound 3.16 µM, first compound 1 µM
[28] = second compound 3.16 µM, first compound 3.16 µM
[29] = second compound 3.16 µM, first compound 10 µM
[30] = second compound 10 µM, first compound 0.0316 µM
[31] = second compound 10 µM, first compound 0.1 µM
[32] = second compound 10 µM, first compound 0.316 µM
[33] = second compound 10 µM, first compound 1 µM
[34] = second compound 10 µM, first compound 3.16 µM
[35] = second compound 10 µM, first compound 10 µM

Question: Which IC50 [1] does the source give for `COc1ccc([C@@H](O)c2cc(-c3ncnc4cc(N5CCOCC5)ccc34)c(F)cc2Cl)nn1` + NC1CCC(NC2CC2c2ccccc2)CC1 here?
Answer: 1.91 µM

Question: What about the IC50 [2] of the same molecule?
Answer: 1.36 µM

Question: And the IC50 [3]?
Answer: 1.92 µM

Question: And the IC50 [4]?
Answer: 1.61 µM

Question: And the IC50 [5]?
Answer: 0.992 µM

Question: And the viability, T/C [6]?
Answer: 88.3%

Question: What about the viability, T/C [7] of the same molecule?
Answer: 91.5%

Question: And the viability, T/C [8]?
Answer: 79%

Question: What about the viability, T/C [9] of the same molecule?
Answer: 56%

Question: What about the viability, T/C [10] of the same molecule?
Answer: 46%

Question: What about the viability, T/C [11] of the same molecule?
Answer: 26.1%

Question: And the viability, T/C [12]?
Answer: 99.3%

Question: And the viability, T/C [13]?
Answer: 93.1%

Question: What about the viability, T/C [14] of the same molecule?
Answer: 69.6%

Question: And the viability, T/C [15]?
Answer: 54.5%

Question: And the viability, T/C [16]?
Answer: 40%

Question: And the viability, T/C [17]?
Answer: 26%

Question: And the viability, T/C [18]?
Answer: 88.2%

Question: And the viability, T/C [19]?
Answer: 80.2%

Question: What about the viability, T/C [20] of the same molecule?
Answer: 66.4%

Question: And the viability, T/C [21]?
Answer: 60.9%

Question: What about the viability, T/C [22] of the same molecule?
Answer: 44.2%

Question: What about the viability, T/C [23] of the same molecule?
Answer: 28%

Question: What about the viability, T/C [24] of the same molecule?
Answer: 93.3%

Question: What about the viability, T/C [25] of the same molecule?
Answer: 83.2%

Question: What about the viability, T/C [26] of the same molecule?
Answer: 69.3%

Question: And the viability, T/C [27]?
Answer: 57.5%

Question: What about the viability, T/C [28] of the same molecule?
Answer: 40.5%

Question: And the viability, T/C [29]?
Answer: 26.1%

Question: What about the viability, T/C [30] of the same molecule?
Answer: 82.5%

Question: And the viability, T/C [31]?
Answer: 83%

Question: And the viability, T/C [32]?
Answer: 63%

Question: And the viability, T/C [33]?
Answer: 50.8%

Question: What about the viability, T/C [34] of the same molecule?
Answer: 35.8%

Question: What about the viability, T/C [35] of the same molecule?
Answer: 25.6%

Question: What does the source list for `NC1CC1c1ccc(-c2cccc(O)c2)cc1` (configuration not stated)?
Answer: viability, T/C (compound 10 µM): 89.8% [middle of 25 runs]; IC50 (compound alone, run of 12/07/2021): > 10 µM

Question: What does the source list for `CC1(C)CCC(CN2CCN(c3ccc(C(=O)NS(=O)(=O)c4ccc(NCC5CCOCC5)c([N+](=O)[O-])c4)c(Oc4cnc5[nH]ccc5c4)c3)CC2)=C(c2ccc(Cl)cc2)C1` + NC1CC1c1ccc(-c2cccc(O)c2)cc1?
Answer: IC50 [1]: 7.44 µM; IC50 [2]: 7.76 µM; IC50 [3]: 7.37 µM; IC50 [4]: 7.61 µM; IC50 [5]: 7.57 µM; viability, T/C [6]: 99.4%; viability, T/C [7]: 97.3%; viability, T/C [8]: 110%; viability, T/C [9]: 97.2%; viability, T/C [10]: 103%; viability, T/C [11]: 32.1%; viability, T/C [12]: 107%; viability, T/C [13]: 112%; viability, T/C [14]: 106%; viability, T/C [15]: 101%; viability, T/C [16]: 100%; viability, T/C [17]: 35.6%; viability, T/C [18]: 110%; viability, T/C [19]: 92.4%; viability, T/C [20]: 93.3%; viability, T/C [21]: 105%; viability, T/C [22]: 94.4%; viability, T/C [23]: 33.7%; viability, T/C [24]: 103%; viability, T/C [25]: 86.9%; viability, T/C [26]: 88.5%; viability, T/C [27]: 106%; viability, T/C [28]: 96%; viability, T/C [29]: 35.7%; viability, T/C [30]: 89.3%; viability, T/C [31]: 85%; viability, T/C [32]: 85.9%; viability, T/C [33]: 86%; viability, T/C [34]: 85%; viability, T/C [35]: 38.9%

Question: For `Nc1ccn(C2OC(CO)C(O)C2(F)F)c(=O)n1` (configuration not stated) + NC1CCC(NC2CC2c2ccccc2)CC1, which IC50 [1] is on record?
Answer: < 0.000949 µM

Question: And the IC50 [2]?
Answer: < 0.000949 µM

Question: What about the IC50 [3] of the same molecule?
Answer: < 0.000949 µM

Question: What about the IC50 [4] of the same molecule?
Answer: < 0.000949 µM

Question: What about the IC50 [5] of the same molecule?
Answer: < 0.000949 µM

Question: And the viability, T/C (second compound 0.1 µM, first compound 0.000949 µM)?
Answer: 27.8%

Question: And the viability, T/C (second compound 0.1 µM, first compound 0.003 µM)?
Answer: 29%

Question: What about the viability, T/C (second compound 0.1 µM, first compound 0.00949 µM) of the same molecule?
Answer: 30.3%

Question: What about the viability, T/C (second compound 0.1 µM, first compound 0.03 µM) of the same molecule?
Answer: 31.4%

Question: And the viability, T/C (second compound 0.1 µM, first compound 0.0949 µM)?
Answer: 30.7%

Question: And the viability, T/C (second compound 0.1 µM, first compound 0.3 µM)?
Answer: 28.6%

Question: What about the viability, T/C (second compound 0.316 µM, first compound 0.000949 µM) of the same molecule?
Answer: 29.5%

Question: And the viability, T/C (second compound 0.316 µM, first compound 0.003 µM)?
Answer: 30.3%

Question: What about the viability, T/C (second compound 0.316 µM, first compound 0.00949 µM) of the same molecule?
Answer: 31%

Question: What about the viability, T/C (second compound 0.316 µM, first compound 0.03 µM) of the same molecule?
Answer: 32.4%

Question: And the viability, T/C (second compound 0.316 µM, first compound 0.0949 µM)?
Answer: 30.8%

Question: What about the viability, T/C (second compound 0.316 µM, first compound 0.3 µM) of the same molecule?
Answer: 30.6%

Question: And the viability, T/C (second compound 1 µM, first compound 0.000949 µM)?
Answer: 32.8%

Question: What about the viability, T/C (second compound 1 µM, first compound 0.003 µM) of the same molecule?
Answer: 33.5%

Question: What about the viability, T/C (second compound 1 µM, first compound 0.00949 µM) of the same molecule?
Answer: 34.3%

Question: And the viability, T/C (second compound 1 µM, first compound 0.03 µM)?
Answer: 33.2%

Question: And the viability, T/C (second compound 1 µM, first compound 0.0949 µM)?
Answer: 32.7%

Question: And the viability, T/C (second compound 1 µM, first compound 0.3 µM)?
Answer: 31.2%

Question: And the viability, T/C (second compound 3.16 µM, first compound 0.000949 µM)?
Answer: 32.8%

Question: And the viability, T/C (second compound 3.16 µM, first compound 0.003 µM)?
Answer: 34.4%

Question: And the viability, T/C (second compound 3.16 µM, first compound 0.00949 µM)?
Answer: 35.5%

Question: And the viability, T/C (second compound 3.16 µM, first compound 0.03 µM)?
Answer: 36.3%

Question: What about the viability, T/C (second compound 3.16 µM, first compound 0.0949 µM) of the same molecule?
Answer: 33.7%

Question: And the viability, T/C (second compound 3.16 µM, first compound 0.3 µM)?
Answer: 31.9%

Question: What about the viability, T/C (second compound 10 µM, first compound 0.000949 µM) of the same molecule?
Answer: 33.3%

Question: What about the viability, T/C (second compound 10 µM, first compound 0.003 µM) of the same molecule?
Answer: 34.9%

Question: What about the viability, T/C (second compound 10 µM, first compound 0.00949 µM) of the same molecule?
Answer: 36.8%

Question: And the viability, T/C (second compound 10 µM, first compound 0.03 µM)?
Answer: 34.6%

Question: And the viability, T/C (second compound 10 µM, first compound 0.0949 µM)?
Answer: 34.9%

Question: What about the viability, T/C (second compound 10 µM, first compound 0.3 µM) of the same molecule?
Answer: 33.1%

Question: `CC1(C)CCC(CN2CCN(c3ccc(C(=O)NS(=O)(=O)c4ccc(NCC5CCOCC5)c([N+](=O)[O-])c4)c(Oc4cnc5[nH]ccc5c4)c3)CC2)=C(c2ccc(Cl)cc2)C1` + NC1CCC(NC2CC2c2ccccc2)CC1 was tested. Which IC50 [1] did it give?
Answer: 7.15 µM

Question: What about the IC50 [2] of the same molecule?
Answer: 7.06 µM

Question: And the IC50 [3]?
Answer: 6.81 µM

Question: What about the IC50 [4] of the same molecule?
Answer: 6.3 µM

Question: And the IC50 [5]?
Answer: 5.48 µM

Question: What about the viability, T/C [6] of the same molecule?
Answer: 116%

Question: What about the viability, T/C [7] of the same molecule?
Answer: 97.5%

Question: And the viability, T/C [8]?
Answer: 105%

Question: What about the viability, T/C [9] of the same molecule?
Answer: 98.9%

Question: What about the viability, T/C [10] of the same molecule?
Answer: 111%

Question: What about the viability, T/C [11] of the same molecule?
Answer: 27.1%

Question: What about the viability, T/C [12] of the same molecule?
Answer: 108%

Question: And the viability, T/C [13]?
Answer: 97.6%

Question: What about the viability, T/C [14] of the same molecule?
Answer: 98.4%

Question: What about the viability, T/C [15] of the same molecule?
Answer: 108%

Question: What about the viability, T/C [16] of the same molecule?
Answer: 111%

Question: What about the viability, T/C [17] of the same molecule?
Answer: 26.2%

Question: And the viability, T/C [18]?
Answer: 97.6%

Question: And the viability, T/C [19]?
Answer: 91.5%

Question: And the viability, T/C [20]?
Answer: 92.3%

Question: And the viability, T/C [21]?
Answer: 101%

Question: What about the viability, T/C [22] of the same molecule?
Answer: 96.1%

Question: And the viability, T/C [23]?
Answer: 27%

Question: And the viability, T/C [24]?
Answer: 99.9%

Question: And the viability, T/C [25]?
Answer: 106%

Question: And the viability, T/C [26]?
Answer: 105%

Question: And the viability, T/C [27]?
Answer: 104%

Question: And the viability, T/C [28]?
Answer: 88.8%

Question: And the viability, T/C [29]?
Answer: 23.8%

Question: And the viability, T/C [30]?
Answer: 90.7%

Question: And the viability, T/C [31]?
Answer: 93.3%

Question: What about the viability, T/C [32] of the same molecule?
Answer: 78.4%

Question: And the viability, T/C [33]?
Answer: 91.7%

Question: What about the viability, T/C [34] of the same molecule?
Answer: 72.8%

Question: And the viability, T/C [35]?
Answer: 24.9%
